Patent US8114850B2, “Antiproliferative activity of G-rich oligonucleotides and method of using same to bind to nucleolin” (Advanced Cancer Therapeutics, LLC, priority 1999, dated 2012)

Key:
[1] = molecular target: T1, GRO-binding protein/nucleolin (HeLa nuclear extracts) (Homo sapiens, UniProt P19338); assay: UV cross-linking of oligonucleotides to HeLa nuclear extracts; conditions: labeled oligonucleotide with HeLa nuclear extracts; FIG. 6C
T1 construct: HeLa nuclear extracts used in EMSAs were purchased from Promega Inc. (bandshift grade); host or cells: HeLa nuclear extract (bandshift grade), purchased
T1 sequence (P19338 whole entry): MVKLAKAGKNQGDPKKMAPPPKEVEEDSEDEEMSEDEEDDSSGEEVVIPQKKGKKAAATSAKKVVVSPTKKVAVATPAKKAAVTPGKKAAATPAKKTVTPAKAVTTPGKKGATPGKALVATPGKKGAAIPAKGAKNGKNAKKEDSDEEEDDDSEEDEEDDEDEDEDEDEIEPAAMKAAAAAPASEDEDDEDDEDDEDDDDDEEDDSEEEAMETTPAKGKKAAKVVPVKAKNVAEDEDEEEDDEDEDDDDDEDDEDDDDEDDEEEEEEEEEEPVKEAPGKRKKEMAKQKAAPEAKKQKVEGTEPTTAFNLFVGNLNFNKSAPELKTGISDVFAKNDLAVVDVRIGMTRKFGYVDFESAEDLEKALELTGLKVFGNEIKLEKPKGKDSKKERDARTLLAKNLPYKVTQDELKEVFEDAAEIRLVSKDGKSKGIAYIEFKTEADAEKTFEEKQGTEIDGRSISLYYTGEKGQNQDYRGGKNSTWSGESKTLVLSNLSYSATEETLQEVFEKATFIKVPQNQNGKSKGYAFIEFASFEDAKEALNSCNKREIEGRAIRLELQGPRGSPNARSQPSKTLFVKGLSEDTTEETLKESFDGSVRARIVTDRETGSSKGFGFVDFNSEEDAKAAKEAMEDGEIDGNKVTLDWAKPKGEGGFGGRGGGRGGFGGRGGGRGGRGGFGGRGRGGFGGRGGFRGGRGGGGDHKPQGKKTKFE
Experimental: For the UV crosslinking experiments, samples were incubated as described above (EMSA). They were then placed on ice and irradiated at 5 cm from the source using the “autocross link” function of a Stratagene UV Stratalinker. Following irradiation, samples were electrophoresed under denaturing conditions on a 8% polyacrylamide-SDS gel using a standard Tris glycine buffer and visualized by autoradiography.
To determine the approximate molecular weight of the protein involved in complex A, and to confirm that competition for this complex results from direct binding of the protein to oligonucleotides, a UV cross-linking study was conducted. 5′-Labeled oligonucleotides and HeLa nuclear extracts were incubated alone or in the presence of unlabeled competitor oligonucleotides.
The samples were then irradiated with UV light resulting in cross-link formation between protein residues and thymidines in the oligonucleotide. The protein was thus radiolabeled and could be detected on a SDS-polyacrylamide gel.

[2] = Detection of G-quartets by UV thermal denaturation/renaturation; assay type: physicochemical; conditions: absorbance at 295 nm; FIG. 4
Experimental: Oligonucleotides were resuspended in Tm buffer (20 mM Tris HCl, pH 8.0, 140 mM KCl, 2.5 mM MgCl2) at a concentration such that A260=0.6 (molar concentrations ranged from […]). Samples were annealed by boiling for five minutes and allowing to cool slowly to room temperature and overnight incubation at 4° C. Thermal denaturation/renaturation experiments were carried out using an Amersham Pharmacia Biotech Ultrospec 2000 instrument equipped with a Peltier effect heated cuvette holder and temperature controller (Amersham Pharmacia Biotech). Absorbance at 295 nm was monitored over a temperature range of 25-95 or 20-90° C. at a heating/cooling rate of 0.5° C./min. To investigate the formation of G-quartet structures by the G-rich oligonucleotides, a U.V. melting technique described by […] et al. (1998) FEBS Lett. 435, 74-78 was used. This method relies on the fact that dissociation of G-quartets leads to a decrease in absorbance at 295 nm and is reported to give a more reliable indication of intramolecular G-quartet formation than measurement at 260 nm.

[3] = tested on: HS27 cells; assay: MTT cell growth assay, non-malignant HS27 cells; assay type: cell-based; conditions: compared to most malignant cell lines; FIG. 2
Experimental: Cells were plated at low density ([…] cells per well, depending on cell line) in the appropriate serum-supplemented medium in 96-well plates (one plate per MTT assay time point) and grown under standard conditions of cell culture. The following day (day 1) oligonucleotide, or water as control, was added to the culture medium to give a final concentration of 15 uM. Further oligonucleotide, equivalent to half the initial dose, was added to the culture medium on days two, three and four.
Cells were assayed using the MTT assay (Morgan (1998) Methods. Mol. Biol. 79, 179-183) on days one, three, five, seven and nine after plating. The culture medium was not changed throughout the duration of the experiment (which was the time required for untreated cells to grow to confluence). Experiments were performed in triplicate and bars represent the standard error of the data.

[4] = tested on: U937 cells; assay: MTT dose dependence, leukemic cell line U937; assay type: cell-based; conditions: FIG. 3
From the text: (§1) FIG. 3: MTT assays showing the dose dependence of growth modulation by GR029A for leukemic cell lines, U937 and […], and a non-malignant mouse hematopoietic stem cell line (ATCC 2037).

[5] = tested on: K562 cells; assay: MTT dose dependence, leukemic cell line K562; assay type: cell-based; conditions: FIG. 3
From the text: as §1

[6] = tested on: hematopoietic stem cell line (ATCC 2037); assay: MTT dose dependence, non-malignant hematopoietic stem cell line; assay type: cell-based, mouse; conditions: FIG. 3
From the text: as §1

[7] = tested on: MDA-MB-231 breast cancer cells; assay: Chemotherapeutic agent and GRO combination, MTT assay; assay type: cell-based, human; conditions: cisplatin 0.5 µg/ml, GR029A 8 uM added after two hours, MTT after six days
Experimental: Cisplatin (in 1% DMSO solution to give a final concentration of […]) was added to the medium of MDA-MB-231 breast cancer cells growing in culture. After two hours, GR029A (in PBS solution to give a final concentration of 8 uM) was added to the medium. After six days, the relative number of viable cells was determined using the MTT assay. Cells treated with GR029A alone received an appropriate volume of 1% DMSO in place of cisplatin. Cells treated with cisplatin alone received an appropriate volume of PBS in place of GR029A.

[8] = molecular target: T2, TEL-binding protein (GRO-binding protein/nucleolin, MDA-MB-231 nuclear extracts) (Homo sapiens, UniProt P19338); assay: Competitive EMSA, labeled TEL and MDA-MB-231 nuclear extracts; conditions: 10 nM unlabeled oligonucleotide; labeled TEL, MDA-MB-231 nuclear extracts
T2 construct: Nuclear and cytoplasmic extracts from MDA-MB-231 cells were prepared using the protocol described in F. M. Ausubel et al; endogenous in cells; host or cells: MDA-MB-231 nuclear extract, prepared in house
T2 sequence (P19338 whole entry): as above

| Substance | UV cross-linked protein complex (approximately 100 kDa) [1] | G-quartet formation (UV annealing curve) [2] | growth modulatory effect on non-malignant HS27 cells [3] | antiproliferative effect, U937 leukemia cells [4] | antiproliferative effect, K562 leukemia cells [5] | growth modulatory effect, non-malignant hematopoietic stem cell line (ATCC 2037) [6] | growth modulation [7] | competition for protein binding in competitive EMSA [8] |
| --- | --- | --- | --- | --- | --- | --- | --- | --- |
| 5′-GTTGTTTGG GGTGGT-3′ (GTTGTTTGGGGTGGT; DNA, backbone not given here; further chemistry not fully specified) [GRO15A] | crosslinked to a protein | suggestive of G-quartet formation |  |  |  |  |  |  |
| 5′-TTTGGTGGTGGTGG TTGTGGTGGTGGTGG-3′ [GR029A] | formed this approximately 100 kDa complex | clearly indicating the presence of G-quartets | lesser growth modulatory effect | antiproliferative effects | antiproliferative effects | lesser growth modulatory effect | 5% | competed strongly |
